The numbers were not newly measured in patent US10034864B2, “1,2,5-oxadiazoles as inhibitors of indoleamine 2,3-dioxygenase” (Incyte Corporation, priority 2008, dated 2018), which cites them from elsewhere.

The subject of one data set is LLC tumors. The settings on record: LLC tumors in C57Bl/6 mice, versus placebo (Friberg 2002).
A further data set concerns P815 tumor. The note with it: pre-immunized immune-competent mice challenged with tumor cells (Uyttenhove 2003).

As to `Cn1cc(C[C@H](N)C(=O)O)c2ccccc21` [Example 1-MT, 1-methyl-tryptophan], the formation of tumors result in the data set on LLC tumors was “markedly delayed”. Also, the growth of tumors entry with P815 tumor is “inhibited”.
